# Test results from patent US10245257B2, “Anti-infective methods, compositions, and devices” (Dow Pharmaceutical Sciences, Inc., priority 2013, dated 2019).
# Where two headings read alike, the source gives them in different places.
# Experiments:
# CYP2C9 = CYP2C9 (Homo sapiens, UniProt P11712); assay: biochemical; assay type: in vitro ADME
# From the text: The 2006 Food and Drug Administration Drug Interaction Studies—Study Design, Data Analysis, and Implications for Dosing and Labeling draft guidance recommends clinical evaluation for drugs that are CYP inhibitors if the mean steady state Cmax/Ki is greater than 0.1.
# [1] = mouse, in vivo
# [2] = test system: T. mentagrophytes, T. rubrum and C. albicans; assay: Drug resistance development in vitro by serial passage of fungal cultures; assay type: cell-based; conditions: serial passage in the presence of sub-growth inhibitory concentrations
# From the text: Efinaconazole drug resistance development was studied in vitro against T. mentagrophytes, T. rubrum and C. albicans. […] The clinical significance of these in vitro results is unknown.
# [3] = Pharmacokinetic study in severe onychomycosis patients, once daily for 28 days; assay type: in vivo, human; conditions: for AUC(0-t): read-out: AUC24h; for Cmax: mean +/- SD
# Procedure: Systemic absorption of efinaconazole in 18 […] patients with severe onychomycosis was determined after application of IDP-108 (10% efinaconazole) once daily for 28 days to patients' 10 toenails and adjacent skin. Specifically, two single-center, open-label studies in healthy volunteers and severe onychomycosis patients.
# A separate single-center, open-label study to evaluate safety and PK of efinaconazole and its H3 metabolite in 20 patients with severe toenail onychomycosis also was conducted. The study enrolled men and women 18-70 years of age who had clinical diagnoses of stable or exacerbating severe DLSO affecting ≥80% of the area of both great toenails. The great toenails had evidence of toenail growth, and at least four toenails other than the great toenails were also affected by onychomycosis. A positive microscopic examination with potassium hydroxide (KOH) for the hyphae associated with dermatophytes was obtained for at least one great toenail at the screening visit.
# Efinaconazole 10% solution (0.42 mL/subject) was applied topically, unoccluded, once daily in the morning for 28 days to all 10 toenails by a trained nurse or study technician, including to the toenail folds, toenail bed, hyponychium, and approximately 0.5 cm of skin around the toenail in all directions to ensure they were completely covered.
# Blood samples were collected at predose and at 1, 2, 4, 6, 8, 10, 12, 16, and 24 hours postdose on days 1, 14, and 28. Blood was processed to plasma and stored frozen until analysis.
# (§1) Plasma concentrations of efinaconazole and its major metabolite H3 were determined by LC-MS-MS at multiple timepoints. Plasma concentrations of efinaconazole and H3 were determined using a validated LC-MS-MS method. […] The concentration of efinaconazole in plasma was determined at multiple time points over the course of 24-hour periods on days 1, 14, and 28. Plasma concentrations below the lower limit were set to zero for PK analyses. Pharmacokinetic parameters were calculated from individual plasma concentrations, whenever possible, using noncompartmental analysis in WinNonlin (Pharsight, Sunnyvale, Calif., USA), and included Cmax (observed peak drug concentration), Tmax (time at which Cmax occurs), Cmin (observed minimum drug concentration), t1/2 (apparent half-life), and AUC (area under the concentration-time curve).
# CHL cell = assay type: cell-based
# bacterial = assay: Bacterial reverse mutation assay; assay type: cell-based
# [4] = Pharmacokinetic study in healthy volunteers, topical application to all 10 toenails; assay type: in vivo, human; conditions: for Cmax: mean +/- SD; for AUC(0-t): read-out: AUC24h
# Procedure: In […] patients, efinaconazole 10% solution (IDP-108) was applied topically to all 10 toenails (0.42 mL total daily dose volume) administered as single and then 7 daily doses to 10 healthy volunteers, and once daily for 28 days to 18 severe onychomycosis patients. The efinaconazole 10% solution (0.42 mL/subject) was applied topically in the morning, unoccluded (i.e., without occluding, blocking or covering the nail with, for example, adhesive tape, bandage, dressing, sealant, etc.), by a trained nurse or study technician to all 10 toenails as a single dose (day 1), and seven consecutive daily doses (day 4 through day 10). A volume of 90 μL was applied on each great toenail and 30 μL on each of the remaining 8 toenails. There were no study drug applications on days 2 and 3.
# Blood samples were collected at pre-dose, and 1, 2, 4, 6, 8, 10, 12, 16, 24, 28, 32, 36, 48, and 72 hours after dosing on days 1 and 10; and at pre-dose on days 6 and 8. Blood was processed to plasma and stored frozen until analysis.
# as §1
# [5] = parameters: species or system rats; conditions: rat, in vivo, sc
# Sequence of CYP2C9 (P11712 whole entry): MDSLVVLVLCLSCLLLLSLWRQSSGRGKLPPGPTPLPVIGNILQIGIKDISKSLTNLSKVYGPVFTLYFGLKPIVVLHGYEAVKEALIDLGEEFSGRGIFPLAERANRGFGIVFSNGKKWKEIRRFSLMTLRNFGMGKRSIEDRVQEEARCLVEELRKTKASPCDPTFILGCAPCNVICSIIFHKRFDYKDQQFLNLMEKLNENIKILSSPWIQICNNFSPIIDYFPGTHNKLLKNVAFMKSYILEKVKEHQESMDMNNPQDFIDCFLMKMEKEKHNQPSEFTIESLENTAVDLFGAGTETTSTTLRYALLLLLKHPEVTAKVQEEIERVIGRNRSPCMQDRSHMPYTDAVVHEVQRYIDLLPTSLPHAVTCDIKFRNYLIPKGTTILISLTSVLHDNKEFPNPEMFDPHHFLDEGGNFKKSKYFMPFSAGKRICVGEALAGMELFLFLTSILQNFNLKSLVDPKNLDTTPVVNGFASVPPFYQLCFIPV
compound,measurement,setting,value
"C=C1CCN([C@H](C)[C@](O)(Cn2cncn2)c2ccc(F)cc2F)CC1 [efinaconazole, (2R,3R)-2-(2,4-difluorophenyl)-3-(4-methylenepiperidin-1-yl)-1-(1H-1,2,4-triazol-1-yl) butan-2-ol]",Ki,CYP2C9,261 nM
same,steady state Cmax/Ki,CYP2C9,0.007
same,clastogenicity,[1],not clastogenic
same,increase of the MIC,[2],up to 4 fold
same,"tolerability, drug-related adverse events",[3]; both PK studies (healthy volunteers and onychomycosis patients),well tolerated
same,Tmax,"[3]; both sexes, human, plasma, topical, 0.42 mL/subject, onychomycosis patients, Day 1",23.9 h
same,AUC(0-t),"[3]; both sexes, human, plasma, topical, 0.42 mL/subject, onychomycosis patients, Day 1, mean +/- SD",1.79 ng·h/mL
same,Cmax,"[3]; both sexes, human, plasma, topical, 0.42 mL/subject, onychomycosis patients, Day 1, plasma",0.23 ± 0.18 ng/mL
same,Tmax,"[3]; both sexes, human, plasma, topical, 0.42 mL/subject, onychomycosis patients, Day 14",4.55 h
same,AUC(0-t),"[3]; both sexes, human, plasma, topical, 0.42 mL/subject, onychomycosis patients, Day 14, mean +/- SD",10.9 ± 5.9 ng·h/mL
same,Cmax,"[3]; both sexes, human, plasma, topical, 0.42 mL/subject, onychomycosis patients, Day 14, plasma",0.62 ± 0.23 ng/mL
same,Tmax,"[3]; both sexes, human, plasma, topical, 0.42 mL/subject, onychomycosis patients, Day 28",16 h
same,AUC(0-t),"[3]; both sexes, human, plasma, topical, 0.42 mL/subject, onychomycosis patients, Day 28, mean +/- SD",12.2 ng·h/mL
same,Cmax,"[3]; both sexes, human, plasma, topical, 0.42 mL/subject, onychomycosis patients, Day 28, plasma",0.67 ng/mL
same,concentration at 2 weeks after the last dose,"[3]; both sexes, human, plasma, topical, 0.42 mL/subject, onychomycosis patients, detected in several subjects, read-out: mean plasma concentrations two weeks after the last dose",0.07 ng/mL
same,Cmin,"[3]; onychomycosis patients, Day 14, mean +/- SD",0.33 ± 0.17 ng/mL
same,Cmin,"[3]; onychomycosis patients, Day 28, mean +/- SD",0.36 ± 0.20 ng/mL
same,clastogenicity,CHL cell,not clastogenic
same,mutagenicity,bacterial,not mutagenic
same,steady-state reached on Day,"[4]; fifth topical application, both toenails and back skin",8 days
same,Systemic exposure (AUC24h) on day 10 relative to day 1,[4]; healthy volunteers,approximately 3.6 fold
same,Cmax,"[4]; healthy volunteers, Day 1 (single dose), plasma",0.38 ± 0.39 ng/mL
same,Cmax,"[4]; healthy volunteers, Day 10 (7th daily dose), plasma",0.54 ± 0.22 ng/mL
same,Cmin,"[4]; healthy volunteers, Day 10, mean +/- SD",0.47 ± 0.18 ng/mL
same,average plasma concentration,"[4]; healthy volunteers, stated after the day 10 range",0.37 ng/mL
same,Cmax,"[4]; human, plasma, topical, 0.42 mL/subject, healthy volunteers, Day 1 (single dose), plasma, read-out: Cmax",0.382 ng/mL
same,AUC(0-t),"[4]; human, plasma, topical, 0.42 mL/subject, healthy volunteers, Day 1, mean +/- SD",2.64 ± 2.85 ng·h/mL
same,Tmax,"[4]; human, plasma, topical, 0.42 mL/subject, healthy volunteers, Day 1, value [range]",24 h
same,Cmax,"[4]; human, plasma, topical, 0.42 mL/subject, healthy volunteers, Day 10 (7th daily dose), plasma, read-out: Cmax",0.542 ng/mL
same,AUC(0-t),"[4]; human, plasma, topical, 0.42 mL/subject, healthy volunteers, Day 10, mean +/- SD",9.48 ± 3.86 ng·h/mL
same,Tmax,"[4]; human, plasma, topical, 0.42 mL/subject, healthy volunteers, Day 10, value [range]",10 h
same,concentration at 1 day,"[4]; human, plasma, topical, 0.42 mL/subject, healthy volunteers, day 1, read-out: plasma concentration range",0 to 1.11 ng/mL
same,concentration at 10 day,"[4]; human, plasma, topical, 0.42 mL/subject, healthy volunteers, day 10, read-out: plasma concentration range",0.25 to 0.85 ng/mL
same,effect on estrous cycle in females,[5]; 5 mg/kg/day,did not have effects
same,effect on estrous cycle in females,[5]; 25 mg/kg/day,delayed the estrous cycle
